# Results reported in US20100168085A1, “Dopamine and agonists and antagonists thereof for modulation of suppressive activity of CD4+CD25+ regulatory T cells” (YESA RESEARCH AND DEVELOPMENT CO. LTD. at the Weizmann …, priority 2003, published 2010).
# Marks after values point to notes of the source that are not given here.
# Key:
# [1] = tested on: CXCR-4 and CCR-8 mRNA in Treg; settings: data not shown
# [2] = tested on: D1-R transcripts in Treg and Teff; settings: 2 h with 10^−5 M
# Experimental: (§1) (xx) Polymerase chain reaction (PCR). Total RNA was purified with the RNeasy Mini Kit (Qiagen, Germantown, Md.) and transcribed into cDNA using poly dT primers. For PCR the following primers were used: […]
# (§2) This was done by assaying the expression of the dopamine type-1 receptors, D1-R and D5-R, in Treg and Teff, in the absence and in the presence of dopamine (incubation of the cells for 2 h with 10^−5 M dopamine).
# [3] = tested on: D5-R transcripts in Treg and Teff; settings: 2 h with 10^−5 M
# Experimental: as §1, §2
# Treg = Treg apoptosis (propidium iodide sub-G1, annexin V, FACS); format: cell-based, mouse
# Experimental: (viii) FACS analysis of annexin V-positive regulatory T cells. PE-stained CD25^+ cells were stained for annexin V-FITC according to the manufacturer's instructions. The cells were scored as described above, and CD25^+ lymphocytes were then gated for analysis of annexin V-positive cells.
# (xv) Propidium iodide staining. Cells were fixed in cold ethanol 80% and treated with RNAse. Propidium iodide was then applied, and cell samples were assessed by FACSort.
# CTLA-4 on Treg = test: FACS analysis of CTLA-4 expression; format: cell-based, mouse; settings: Treg activated 24 h, 2 h with compound, stained 24 h later
# Experimental: (vii) FACS analysis of CTLA-4-expressing CD4^+ T cells. Cells were immunostained according to the manufacturer's instructions, resuspended in 0.4 mL of 1% paraformaldehyde, and analyzed by FACSort (Becton-Dickinson), with 10,000 events scored. […] The cells were scored from a region defined according to physical parameters that indicate the size (forward scatter) and granularity (side scatter) of lymphocytes. CD4^+ lymphocytes were then gated for analysis of CTLA-4 expression.
# To gain further insight into the mechanism whereby dopamine affects Treg activity we examined CTLA-4, a molecule characteristic of Treg (Im et al., 2001).
# [4] = tested on: mice, glutamate-induced retinal ganglion cell death; test: Intravitreal glutamate toxicity, retinal ganglion cell survival; format: in vivo, mouse
# Experimental: (iii) Intravitreal glutamate injection. The right eyes of anesthetized mice were punctured with a 27-gauge needle in the upper part of the sclera, and a 10-μL Hamilton syringe with a 30-gauge needle was inserted as far as the vitreal body. A total volume of 1 μl, of L-glutamate (400 nmol) dissolved in saline was injected into the eye.
# (iv) Retrograde labeling of retinal ganglion cells. Mice were anesthetized and placed in a stereotactic device. The skull was exposed and kept dry and clean. The bregma was identified and marked. The designated point of injection was at a depth of 2 mm from the brain surface, 2.92 mm behind the bregma in the anteroposterior axis and 0.5 mm lateral to the midline. A window was drilled in the scalp above the designated coordinates in the right and left hemispheres. The neurotracer dye FluoroGold (5% solution in saline; Fluorochrome, Denver, Colo.) was applied (1 μL, at a rate of 0.5 μL/min in each hemisphere) using a Hamilton syringe, and the skin over the wound was sutured.
# (xxi) Assessment of mouse retinal ganglion cell survival. Mice were given a lethal dose of pentobarbitone (170 mg/kg). Their eyes were enucleated and the retinas were detached and prepared as flattened whole mounts in 4% paraformaldehyde solution. Labeled cells from 4-6 selected fields of identical size (0.7 mm^2) were counted. The selected fields were located at approximately the same distance from the optic disk (0.3 mm) to overcome the variation in RGC density as a function of distance from the optic disk. Fields were counted under the fluorescence microscope (magnification ×800) by observers blinded to the identity of the retinas. The average number of RGCs per field in each retina was calculated.
# Injection of glutamate into the eyes of adult mice causes retinal ganglion cell death that is measurable 1 week after the injection (Mizrahi et al., 2002; Schori et al., 2001a; Katayama et al., 1990). We injected Balb/c mice intraperitoneally (i.p.) with the dopamine, or its specific D1-type agonist SKF-38393 (3.3 mg/kg), or its specific D1-type antagonist SCH-23390 (3 mg/kg), immediately after their exposure to glutamate toxicity. We also injected SCID Balb/c mice with SKF-38393 (3.3 mg/kg) immediately after glutamate intoxication.
# Immediately after glutamate intoxication mice were systemically injected with the indicated drugs. Neuronal survival was determined ten days later (see Materials and Methods). The results are expressed by changes (in percentage) in neuronal survival in treated mice relative to untreated mice. Each value represents a mean±SEM of a group of at least 5 animals, and each experiment was performed at least twice, independently. Asterisks (***, P<0.001; **, P<0.01) indicate statistical significance of the presented data from a single experiment using a Student's T-test statistical analysis. (NT—not tested; ns—no statistical significance).
# [5] = tested on: suppressive activity of Treg in vivo (neuronal survival); settings: Treg incubated with dopamine (10^−5 M, 2 h) prior to systemic injection
# Description: To unequivocally show the direct effect of dopamine on Treg activity in vivo, we examined whether direct exposure of Treg to dopamine can reduce their suppressive activity in a model of neuronal survival.
# solid tumor cells M2R = settings: Treg 2×10^6 cells exposed to dopamine 10^−5 M
# Description: In another experiment, mice (n=10) were inoculated with solid tumor cells M2R, and received an immediate injection of Treg (2×10^6 cells) with and without exposure to dopamine (10^−5M). Control animals (n=10) received an injection of vehicle (PBS) following cancer cells inoculation.
# [6] = tested on: migration of T cells towards SDF-1
# Experimental: The migration of T cells across polycarbonate filters (pore size 5 μm, diameter 6.5 mm) towards SDF-1 and MDC (CCL22) was assayed in 24-well Transwell chambers (Costar, Corning, Corning, N.Y.). T lymphocytes (1.67×10^6 cells/mL) were suspended in RPMI/0.1% BSA, and 150 μL of the cell suspension was added to the upper chamber after incubation with or without dopamine (90 min, 37° C.). Chemokines were added to the lower chamber at concentrations of 1 μg/mL SDF-1 (CytoLab, Israel) and 0.25 μg/mL MDC (R&D Systems). The plates were incubated for 90 min at 37° C. in 9.5% CO2. […] The numbers of migrating T cells were measured by flow cytometer acquisition for a fixed time (60 s). To calculate specific migration, the number of cells in each subpopulation in the absence of chemokine was subtracted from the number in the corresponding cell subpopulation that migrated in the presence of chemokines. The number of migrating CD4^+CD25^+ T cells was calculated as a percentage of the total T cell population before migration. For migration of purified population we used a similar protocol.
# We also examined the migration of a mixed T cell population towards SDF-1.
smiles,measurement,setting,value
"NCCc1ccc(O)c(O)c1 [dopamine, 3,4-dihydroxyphenethylamine]",Expression of mRNA for CXCR-4 and CCR-8 in Treg,[1],did not change
same,Number of D1-R transcripts in Treg or Teff,[2],did not significantly alter
same,Increase of D5-R transcripts in Teff,[3],10 fold
same,Number of D5-R transcripts in Treg,[3],unchanged
same,"Apoptosis, annexin V staining for phosphatidylserine",Treg; Treg incubated with compound,could not detect any signs of apoptosis
same,"Apoptotic cells (sub-G1), propidium iodide staining",Treg; Treg incubated with dopamine,No signs of apoptosis
same,CTLA-4 expression on Treg,CTLA-4 on Treg,slightly but consistently decreased
same,Increase in neuronal survival relative to PBS-treated glutamate-injected controls,"[4]; Balb/c, single i.p. injection, dopamine 0.4 mg/kg, SKF-38393 3.3 mg/kg",18±2.5%
same,Changes in neuronal survival in treated relative to untreated mice (mean±SEM),"[4]; Wild type mice, systemic injection immediately after glutamate intoxication",18 ± 2.5*** percentage
same,Suppressive effect of injected Treg on neuronal survival,[5],abolished their suppressive effect
same,Tumor development in mice injected with Treg exposed to dopamine,solid tumor cells M2R,did not differ from control mice
same,Migration pattern of mixed T cell population towards SDF-1,[6],did not alter this pattern
